The values below come from ChEMBL document CHEMBL1201862, “PubChem BioAssay data set” (2004).

As usually defined, the GI50 is the concentration giving 50% growth inhibition.

Some test systems named below: A498; COLO 205; DU-145; HOP-62; HT-29; Hs-578T; M14; MCF7; Malme-3M; NCI/ADR-RES; OVCAR-5; SF-295; SK-MEL-2; SR; TK-10; UACC-62; HCC 2998; HOP-92; SF-539.
Common to all, as to experiment: DTP human tumour cell line panel, 48 h

The structures appear in SMILES notation.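 Cells were grown in 96-well plates and exposed to each compound for 48 hours at five concentrations; endpoints were interpolated linearly between bracketing concentrations, or set to the highest concentration if not reached. Here, GI50 denotes the concentration required for 50% inhibition of growth.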 Active and inactive are the calls of the source. Cut-off read from the data, not from the text of the source: active = GI50 up to about 1.1 µM and inactive = higher. Where a SMILES comes first, the peptide text is derived from it. The star is where a group is joined. Cbz = O=C(OCc1ccccc1)*

Regarding `CCCCNN`, the GI50 with A498, in the experiment with COLO 205, in the experiment on DU-145, in the experiment on HOP-62, in the experiment with HT-29 and with Hs-578T was > 100 µM (inactive) throughout. In addition, the GI50 in the experiment on M14, with MCF7, in the experiment with Malme-3M, with NCI/ADR-RES, in the experiment with OVCAR-5 and in the experiment on SF-295 was > 100 µM (inactive) throughout. The GI50 in the experiment with SK-MEL-2, in the experiment with SR, with TK-10 and in the experiment with UACC-62 was > 100 µM (inactive) throughout.

With `CN(O)C(=O)CCC(NC(=O)CCC(N)C(=O)O)C(=O)NCC(=O)O` (stereo not given), the GI50 in the experiment with A498, in the experiment with COLO 205, with DU-145, with HCC 2998, with HOP-62 and in the experiment on HOP-92 was > 100 µM (inactive) each time. Besides, the GI50 with HT-29, in the experiment with Hs-578T, in the experiment on M14, in the experiment on MCF7, with NCI/ADR-RES and in the experiment on OVCAR-5 was > 100 µM (inactive) throughout. Also, the GI50 in the experiment on SF-295, in the experiment with SF-539, in the experiment with SK-MEL-2, with TK-10 and in the experiment on UACC-62 was > 100 µM (inactive) each time.

Consider `CCOc1c(OC)cc(-c2nc3n(n2)C(=O)C(CC)S3)cc1OC` (stereo not given), for which the GI50 in the experiment with A498, in the experiment on COLO 205, in the experiment with DU-145, in the experiment with HCC 2998, in the experiment with HOP-62 and in the experiment on HT-29 was > 10 µM (inactive) throughout. Also, the GI50 in the experiment with Hs-578T, in the experiment on M14, with MCF7, with Malme-3M, with NCI/ADR-RES and in the experiment with OVCAR-5 was > 10 µM (inactive) in each case. Moreover, the GI50 with SF-295, in the experiment with SF-539, in the experiment with SK-MEL-2, in the experiment with SR, in the experiment on TK-10 and in the experiment on UACC-62 was > 10 µM (inactive) in each case.

In the case of `CNc1ncnc2c1cnn2Cc1cn(COCC(O)CO)nn1` (stereo not given), the GI50 in the experiment with A498 is > 100 µM (inactive); with COLO 205 it was > 100 µM (inactive); with DU-145, > 100 µM (inactive); in the experiment with HCC 2998, > 100 µM (inactive); in the experiment on HOP-62 it was > 100 µM (inactive); in the experiment on HOP-92, 59.4 µM (inactive). Also, the GI50 was > 100 µM (inactive) in the experiment with HT-29; 0.149 µM (active) in the experiment with Hs-578T; > 100 µM (inactive) with M14; > 100 µM (inactive) in the experiment with MCF7; > 100 µM (inactive) with NCI/ADR-RES; > 100 µM (inactive) in the experiment with OVCAR-5. In addition, the GI50 with SF-295, with SF-539, with SK-MEL-2, with TK-10 and in the experiment on UACC-62 was > 100 µM (inactive) each time.

Regarding `c1ccc2c(c1)CCc1c-2n(CCN2CCOCC2)c2ccccc12`, the GI50 was 37.4 µM (inactive) in the experiment with COLO 205; > 100 µM (inactive) with DU-145; 14.3 µM (inactive) in the experiment with HCC 2998; 68.4 µM (inactive) in the experiment on HOP-62; 17.8 µM (inactive) in the experiment on HOP-92; 13.2 µM (inactive) in the experiment with HT-29. For the same compound, the GI50 is 12.8 µM (inactive) with Hs-578T; 44 µM (inactive) with M14; > 100 µM (inactive) with MCF7; 13.6 µM (inactive) in the experiment with Malme-3M; > 100 µM (inactive) with NCI/ADR-RES; > 100 µM (inactive) in the experiment with OVCAR-5. In addition, the GI50 with SF-295 is 28.3 µM (inactive); with SF-539 it was 37.9 µM (inactive); with SK-MEL-2, 11.8 µM (inactive); in the experiment on SR, 15 µM (inactive); in the experiment on TK-10, > 100 µM (inactive); in the experiment with UACC-62 it was > 100 µM (inactive).

Turning to `CC(=O)NC(Cc1ccc(O)cc1)C(=O)O` (stereo not given), the GI50 in the experiment with A498, with COLO 205, with DU-145, in the experiment with HCC 2998, in the experiment on HOP-62 and with HOP-92 was > 100 µM (inactive) throughout. In addition, the GI50 with HT-29, with Hs-578T, with M14, in the experiment with MCF7, in the experiment with Malme-3M and in the experiment with NCI/ADR-RES was > 100 µM (inactive) in each case. The GI50 with OVCAR-5, in the experiment on SF-295, with SK-MEL-2, with TK-10 and with UACC-62 was > 100 µM (inactive) throughout.

With `Clc1nc2c(C#Cc3ccccc3)ncnc2n1C1CCCCO1` (stereo not given), the GI50 is 15.4 µM (inactive) in the experiment with COLO 205; 19 µM (inactive) in the experiment with DU-145; 14.7 µM (inactive) in the experiment with HCC 2998; 31.2 µM (inactive) in the experiment on HOP-62; 14.8 µM (inactive) in the experiment on HOP-92; 12.4 µM (inactive) in the experiment with HT-29. The GI50 with Hs-578T was 24.7 µM (inactive); with M14, 12.1 µM (inactive); in the experiment with MCF7 it was 8.32 µM (inactive); with Malme-3M, 17.6 µM (inactive); in the experiment on NCI/ADR-RES, 25.8 µM (inactive); in the experiment with OVCAR-5, 12.6 µM (inactive). Besides, the GI50 is 22.6 µM (inactive) in the experiment on SF-295; 14.3 µM (inactive) with SF-539; 12.9 µM (inactive) with SK-MEL-2; 4.37 µM (inactive) in the experiment with SR; 20.5 µM (inactive) with TK-10; 13.4 µM (inactive) in the experiment with UACC-62.

In the case of `CC(C)(C)OC(=O)C1=C(N)N(Cc2ccccc2)C2(C)C=CC(=O)C=C12` (stereo not given), the GI50 is 10.2 µM (inactive) with A498; 2.3 µM (inactive) in the experiment with COLO 205; 4.04 µM (inactive) in the experiment on DU-145; 14.2 µM (inactive) with HCC 2998; 16 µM (inactive) with HOP-62; 2.16 µM (inactive) with HOP-92. Moreover, the GI50 in the experiment on HT-29 was 4.03 µM (inactive); in the experiment with Hs-578T it was 14.5 µM (inactive); in the experiment with M14, 2.98 µM (inactive); in the experiment with MCF7, 2.5 µM (inactive); with Malme-3M it was 4.92 µM (inactive); in the experiment with NCI/ADR-RES it was 23.9 µM (inactive). The GI50 in the experiment on OVCAR-5 is 18.1 µM (inactive); in the experiment on SF-295, 14.9 µM (inactive); in the experiment on SF-539 it was 5.3 µM (inactive); with SK-MEL-2, 11.7 µM (inactive); with TK-10, 3.44 µM (inactive); with UACC-62, 7.93 µM (inactive).

Turning to `O=C1c2ccccc2-c2nnc3c(c21)-c1ccccc1C3`, the GI50 in the experiment on COLO 205 was 46.6 µM (inactive); with DU-145, > 100 µM (inactive); with HOP-92 it was > 100 µM (inactive); in the experiment with HT-29 it was 48 µM (inactive); in the experiment on Hs-578T it was > 100 µM (inactive); in the experiment on M14, > 100 µM (inactive). In addition, the GI50 in the experiment with MCF7 was 64.6 µM (inactive); in the experiment with Malme-3M, > 100 µM (inactive); with NCI/ADR-RES, > 100 µM (inactive); in the experiment on OVCAR-5 it was > 100 µM (inactive); with SF-295, > 100 µM (inactive); in the experiment on SF-539, 93.8 µM (inactive). Moreover, the GI50 was > 100 µM (inactive) with SK-MEL-2, 12 µM (inactive) in the experiment on SR and 37.6 µM (inactive) with UACC-62.

With `NC1=CC(C(=O)c2ccncc2)c2nc3ccccc3nc21` (stereo not given), the GI50 in the experiment on A498 was > 100 µM (inactive); in the experiment with COLO 205, > 100 µM (inactive); in the experiment with DU-145 it was > 100 µM (inactive); with HCC 2998, > 100 µM (inactive); in the experiment on HOP-62 it was 44.2 µM (inactive); in the experiment with HOP-92, > 100 µM (inactive). In addition, the GI50 in the experiment on HT-29 was 68.5 µM (inactive); in the experiment on Hs-578T it was 57 µM (inactive); in the experiment with M14 it was > 100 µM (inactive); in the experiment on MCF7, > 100 µM (inactive); with Malme-3M, > 100 µM (inactive); in the experiment with NCI/ADR-RES, > 100 µM (inactive). The GI50 in the experiment on OVCAR-5 was > 100 µM (inactive); with SF-295 it was 94.4 µM (inactive); with SF-539, > 100 µM (inactive); in the experiment with SK-MEL-2, > 100 µM (inactive); in the experiment on TK-10, > 100 µM (inactive); with UACC-62, > 100 µM (inactive).

On to `COC(=O)C(CC(C)C)NC(=O)C(CCCNC(=N)N)NC(=O)OCc1ccccc1` (stereo not drawn) (Cbz-Arg-Leu-OMe; configuration not given here), for which the GI50 with COLO 205, with DU-145, in the experiment with HCC 2998, in the experiment with HOP-62, in the experiment with HOP-92 and in the experiment with HT-29 was > 100 µM (inactive) throughout. Moreover, the GI50 in the experiment on Hs-578T, in the experiment on M14, with MCF7, in the experiment on Malme-3M, in the experiment on NCI/ADR-RES and in the experiment on OVCAR-5 was > 100 µM (inactive) each time. In addition, the GI50 in the experiment on SF-295, with SR, in the experiment with TK-10 and in the experiment on UACC-62 was > 100 µM (inactive) each time.

For the compound `O=C(Nc1cccc(C(F)(F)F)c1)c1cc(Br)cc(Br)c1O` [FLUOROSALAN], the GI50 in the experiment with COLO 205 was 3.18 µM (inactive); in the experiment with DU-145, 2.9 µM (inactive); in the experiment with HCC 2998 it was 3.03 µM (inactive); with HOP-62 it was 5.22 µM (inactive); in the experiment with HOP-92 it was 2.27 µM (inactive); in the experiment on HT-29 it was 3.91 µM (inactive). For the same compound, the GI50 with Hs-578T was 3.4 µM (inactive); with M14, 4.94 µM (inactive); with MCF7 it was 2.89 µM (inactive); in the experiment with NCI/ADR-RES it was 2.36 µM (inactive); with OVCAR-5, 4.76 µM (inactive); in the experiment on SF-295, 2.62 µM (inactive). The GI50 in the experiment with SF-539 was 3.55 µM (inactive); with SK-MEL-2, 2.32 µM (inactive); with SR it was > 10 µM (inactive); in the experiment on TK-10, 2.96 µM (inactive); with UACC-62, 3.56 µM (inactive).
